Data on 17 compounds can be found in patent US11318137B2, “Quinazoline compounds as modulators of Ras signaling” (VANDERBILT UNIVERSITY, priority 2017, dated 2022).

The target of one test is T1, Son of Sevenless (SOS) (Homo sapiens, UniProt Q07889).
T1 sequence (Q07889 564-1049 limits assumed): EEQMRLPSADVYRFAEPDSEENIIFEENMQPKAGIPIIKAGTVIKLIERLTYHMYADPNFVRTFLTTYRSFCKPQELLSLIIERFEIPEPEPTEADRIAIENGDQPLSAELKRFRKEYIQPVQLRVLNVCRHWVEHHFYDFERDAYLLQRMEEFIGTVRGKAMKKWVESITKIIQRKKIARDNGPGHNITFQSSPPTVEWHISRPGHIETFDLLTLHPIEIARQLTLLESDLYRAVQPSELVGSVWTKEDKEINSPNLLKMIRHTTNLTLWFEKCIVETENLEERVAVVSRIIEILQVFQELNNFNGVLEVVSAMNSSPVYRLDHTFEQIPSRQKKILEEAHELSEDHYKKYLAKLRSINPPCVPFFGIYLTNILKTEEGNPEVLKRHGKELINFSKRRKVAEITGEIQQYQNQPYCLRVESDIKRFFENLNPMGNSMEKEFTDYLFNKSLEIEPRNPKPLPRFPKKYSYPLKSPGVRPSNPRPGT
Put plainly: Binding to SOS, fluorescence polarization anisotropy (FPA) displacement of FITC-conjugated probe. Particulars: binding affinity calculated from IC50 of FITC-probe displacement, read-out: Binding affinities (binding affinity to SOS). As to the method:
Compounds of the present invention were tested for their ability to the Ras guanine exchange factor (GEF) Son of Sevenless (SOS). Binding to SOS was measured using a Fluorescence polarization anisotropy (FPA) assay that assesses the ability of a test compound to displace a fluorescent FITC-conjugated compound. Briefly, the labeled probe compound is incubated with SOS in buffer. Changes in anisotropy indicative of displacement of the labeled probe for a test compound are assessed over a dose range of test compound. Data was analyzed by plotting fluorescence anisotropy values as a function of compound concentration. IC50 values were determined using a four-parameter dose-response (variable slope) and binding affinities were calculated from this IC50 value. This assay is performed in a method analogous to the assay disclosed in: Burns, M. C.; Sun, Q.; Daniels, R. N.; Camper, D. V.; Kennedy, J. P.; Phan, J.; Olejniczak, E. O.; Lee, T.; Waterson, A. G.; Rossanese, O. W.; Fesik, S. W. “Approach for targeting Ras with small molecules that activate SOS-mediated nucleotide exchange” Proc. Natl. Acad. Sci. 2014; 11(9): 3401-3406. PMCID: PMC3948241.

Test [1] concerns the target T2, SOS-mediated nucleotide exchange on Ras (Homo sapiens, UniProt Q07889).
T2 sequence (Q07889 1-1333): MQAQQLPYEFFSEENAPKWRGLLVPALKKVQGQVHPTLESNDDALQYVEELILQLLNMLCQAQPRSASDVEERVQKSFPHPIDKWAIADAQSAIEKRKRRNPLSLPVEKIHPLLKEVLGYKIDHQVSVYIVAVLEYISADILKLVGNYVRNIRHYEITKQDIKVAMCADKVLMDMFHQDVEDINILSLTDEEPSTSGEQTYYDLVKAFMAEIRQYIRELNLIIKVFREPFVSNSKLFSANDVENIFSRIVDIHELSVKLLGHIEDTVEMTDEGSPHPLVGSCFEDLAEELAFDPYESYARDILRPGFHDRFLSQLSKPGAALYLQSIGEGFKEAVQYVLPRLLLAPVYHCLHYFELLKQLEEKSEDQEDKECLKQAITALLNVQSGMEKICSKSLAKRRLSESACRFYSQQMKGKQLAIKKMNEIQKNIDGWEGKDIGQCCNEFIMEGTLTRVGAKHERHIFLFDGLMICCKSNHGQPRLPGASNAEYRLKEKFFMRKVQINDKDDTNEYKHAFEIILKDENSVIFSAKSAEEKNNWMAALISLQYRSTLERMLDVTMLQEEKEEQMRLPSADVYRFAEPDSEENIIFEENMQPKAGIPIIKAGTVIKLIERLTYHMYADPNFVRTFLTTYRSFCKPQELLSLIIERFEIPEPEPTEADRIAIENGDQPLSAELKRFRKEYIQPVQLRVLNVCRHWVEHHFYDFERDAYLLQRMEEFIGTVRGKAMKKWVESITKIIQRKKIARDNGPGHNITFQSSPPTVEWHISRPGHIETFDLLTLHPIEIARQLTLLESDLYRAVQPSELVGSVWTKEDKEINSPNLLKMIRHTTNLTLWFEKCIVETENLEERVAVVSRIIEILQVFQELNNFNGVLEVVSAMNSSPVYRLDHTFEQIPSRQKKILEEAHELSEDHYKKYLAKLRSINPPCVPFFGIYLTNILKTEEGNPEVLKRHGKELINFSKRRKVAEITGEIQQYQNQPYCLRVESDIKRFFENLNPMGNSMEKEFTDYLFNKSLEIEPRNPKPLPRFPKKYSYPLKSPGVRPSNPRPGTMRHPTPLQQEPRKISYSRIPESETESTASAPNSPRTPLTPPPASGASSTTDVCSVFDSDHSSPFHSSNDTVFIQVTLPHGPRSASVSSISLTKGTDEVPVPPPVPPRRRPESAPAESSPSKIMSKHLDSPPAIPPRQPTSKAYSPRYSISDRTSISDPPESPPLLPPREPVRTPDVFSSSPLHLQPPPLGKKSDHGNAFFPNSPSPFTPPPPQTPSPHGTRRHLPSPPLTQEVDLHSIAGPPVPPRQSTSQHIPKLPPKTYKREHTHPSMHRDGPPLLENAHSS
Put plainly: SOS-mediated nucleotide exchange on Ras (BODIPY-GDP fluorescence). It counts as biochemical. Particulars: Ras loaded with BODIPY-GDP, GTP and SOS added; EC50 from derived exchange rates. As to the method: A. SOS-Mediated Nucleotide Exchange on Ras
Compounds of the present invention were tested for their ability to modify the rate at which Ras exchanges a labeled nucleotide guanosine diphosphate (GDP) analog for guanosine triphosphate (GTP). Briefly, test compounds, then GTP and the Ras GEF SOS (Son of Sevenless) are added to a buffered solution containing Ras protein loaded with BODIPY-GDP. Changes in fluorescence indicating exchange of the labeled GDP for GTP are monitored over time. Raw fluorescence data was fit to a single exponential decay function and derived rates were plotted as mean values. EC50 values were calculated by plotting mean derived rates as a function of compound concentration and fit using a four-parameter dose-response curve. Full assay details are disclosed in: Burns, M. C.; Sun, Q.; Daniels, R. N.; Camper, D. V.; Kennedy, J. P.; Phan, J.; Olejniczak, E. O.; Lee, T.; Waterson, A. G.; Rossanese, O. W.; Fesik, S. W. “Approach for targeting Ras with small molecules that activate SOS-mediated nucleotide exchange” Proc. Natl. Acad. Sci. 2014; 11(9): 3401-3406. PMCID: PMC3948241.

What is called EC50 is the concentration needed to bring the measured effect to its halfway point. `CC[C@@H](Nc1nc(Nc2ccc(F)c(Cl)c2)nc2ccccc12)C1CCC1` [Example 42, (R)—N^2-(3-chloro-4-fluorophenyl)-N^4-(1-cyclobutylpropyl)quinazoline-2,4-diamine]: the Ki at Son of Sevenless (SOS) is over 5 µM. This compound also had an EC50 in test [1] of 1 to 5 µM.
`C[C@@H](Nc1nc(Nc2ccc(F)c(Cl)c2)nc2c(N3CCNCC3)cccc12)C1CC1` [Example 52, (R)—N^2-(3-chloro-4-fluorophenyl)-N^4-(1-cyclopropylethyl)-8-(piperazin-1-yl)quinazoline-2,4-diamine]: the Ki on Son of Sevenless (SOS) is 1 to 5 µM. This compound returned an EC50 in test [1] of 1 to 5 µM.
`C[C@@H](Nc1nc(Nc2ccc(F)c(Cl)c2)nc2c(NCCCN(C)C)cccc12)C1CC1` [Example 53, (R)—N^2-(3-chloro-4-fluorophenyl)-N^4-(1-cyclopropylethyl)-N^8-(3-(dimethylamino)propyl)quinazoline-2,4,8-triamine]: on Son of Sevenless (SOS), the Ki was over 5 µM. Moreover, the EC50 in test [1] lay in the range of 5 to 30 µM.
As for `C[C@@H](Nc1nc(Nc2ccc(F)c(Cl)c2)nc2c(NCCO)cccc12)C1CC1` [Example 54, (R)-2-((2-((3-chloro-4-fluorophenyl)amino)-4-((1-cyclopropylethyl)amino)quinazolin-8-yl)amino)ethan-1-ol], the Ki on Son of Sevenless (SOS) is over 5 µM. For the same compound, the EC50 in test [1] was over 30 µM.
The matching figures for `C[C@@H](Nc1nc(Nc2ccc(F)c(Cl)c2)nc2c(C#N)cccc12)C1CC1` [Example 55, (R)-2-((3-chloro-4-fluorophenyl)amino)-4-((1-cycloprprpylethyl)amino)quinazoline-8-carbonitrile]: over 5 µM and over 30 µM.
The matching figures for `C[C@@H](Nc1nc(Nc2ccc(F)c(Cl)c2)nc2c(CN)cccc12)C1CC1` [Example 56, (R)-8-(aminomethyl)-N^2-(3-chloro-4-fluorophenyl)-N^4-(1-cyclopropylethyl)quinazoline-2,4-diamine]: over 5 µM and 1 to 5 µM.
As to `C[C@@H](Nc1nc(Nc2ccc(F)c(Cl)c2)nc2c(CCN)cccc12)C1CC1` [Example 60, (R)-8-(2-aminoethyl)-N^2-(3-chloro-4-fluorophenyl)-N^4-(1-cyclopropylethyl)quinazoline-2,4-diamine], the Ki at Son of Sevenless (SOS) is 1 to 5 µM. Moreover, the concentration giving a half-maximal response (EC50) in test [1] was 1 to 5 µM.
For `C[C@@H](Nc1nc(Nc2ccc(F)c(Cl)c2)nc2c(C3=CCNCC3)cccc12)C1CC1` [Example 62, (R)—N^2-(3-chloro-4-fluorophenyl)-N^4-(1-cyclopropylethyl)-8-(1,2,3,6-tetrahydropyridin-4-yl)quinazoline-2,4-diamine], at Son of Sevenless (SOS), the Ki is 1 to 5 µM. Besides, the EC50 in test [1] is under 1 µM.
The matching figures for `C[C@@H](Nc1nc(NCCc2c[nH]cn2)nc2c(C3=CCNCC3)cccc12)C1CC1` [Example 63, (R)—N^2-(2-(1H-imidazol-4-yl)ethyl)-N^4-(1-cyclopropylethyl)-8-(1,2,3,6-tetrahydropyridin-4-yl)quinazoline-2,4-diamine]: over 5 µM and over 30 µM.
The matching figures for `C[C@@H](Nc1nc(Nc2ccc(F)c(Cl)c2)nc2c(NCCN)cccc12)C1CC1` [Example 65, (R)—N^8-(2-aminoethyl)-N^2-(3-chloro-4-fluorophenyl)-N^4-(1-cyclopropylethyl)quinazoline-2,4,8-triamine]: over 5 µM and 5 to 30 µM.
The matching figures for `C[C@@H](Nc1nc(Nc2ccc(F)c(Cl)c2)nc2c(NCCCN)cccc12)C1CC1` [Example 66, (R)—N^8-(3-aminopropyl)-N^2-(3-chloro-4-fluorophenyl)-N^4-(1-cyclopropylethyl)quinazoline-2,4,8-triamine]: over 5 µM and 5 to 30 µM.
Consider `C[C@@H](Nc1nc(Nc2ccc(F)c(Cl)c2)nc2c(NCCN(C)C)cccc12)C1CC1` [Example 67, (R)—N^2-(3-chloro-4-fluorophenyl)-N^4-(1-cyclopropylethyl)-N8-(2-(dimethylamino)ethyl)quinazoline-2,4,8-triamine], for which the Ki at Son of Sevenless (SOS) is over 5 µM. In test [1], the EC50 is 5 to 30 µM.
Consider `NCCc1cccc2c(NC(C3CC3)C3CC3)nc(NCC3CCCCC3)nc12` [Example 74, 8-(2-aminoethyl)-N^2-(cyclohexylmethyl)-N^4-(dicyclopropylmethyl)quinazoline-2,4-diamine], for which the Ki on Son of Sevenless (SOS) was 1 to 5 µM. For the same compound, the EC50 in test [1] is 1 to 5 µM.
Regarding `C[C@@H](Nc1nc(NCC2CCCCC2)nc2c(CCN)cccc12)C1CC1` [Example 77], at Son of Sevenless (SOS), the Ki is under 1 µM. Also, in test [1], the 50% effective concentration (EC50) is 1 to 5 µM.
In the case of `C[C@@H](Nc1nc(NCC2CCCCC2)nc2c(C3=CCNCC3)cccc12)C(C)(C)C` [Example 81, (R)—N^2-(cyclohexylmethyl)-N^4-(3,3-dimethylbutan-2-yl)-8-(1,2,3,6-tetrahydropyridin-4-yl)quinazoline-2,4-diamine], the Ki at Son of Sevenless (SOS) is over 5 µM. In test [1], this compound had an EC50 of 1 to 5 µM.
The matching figures for `C[C@@H](Nc1nc(Nc2ccc(F)c(Cl)c2)nc2c(CCN)cccc12)C(C)(C)C` [Example 82, (R)-8-(2-aminoethyl)-N^2-(3-chloro-4-fluorophenyl)-N^4-(3,3-dimethylbutan-2-yl)quinazoline-2,4-diamine]: over 5 µM and 5 to 30 µM.
In the case of `C[C@@H](Nc1nc(NCC2CCCCC2)nc2c(CCN)cccc12)C(C)(C)C` [Example 84, (R)-8-(2-aminoethyl)-N^2-(cyclohexylmethyl)-N^4-(3,3-dimethylbutan-2-yl)quinazoline-2,4-diamine], the Ki at Son of Sevenless (SOS) is 1 to 5 µM. For the same compound, the EC50 in test [1] lay in the range of 5 to 30 µM.
